Measurements as given in patent US20240383856A1 (Zedira GmbH, priority 2021, published 2024).

What was measured:
[1] = target: T1, recombinant human transglutaminase 2 (Homo sapiens, UniProt P21980); experiment: Transglutaminase assay (DCC-assay): incorporation of dansylcadaverine into dimethylcasein; type: biochemical; settings: for IC50: recombinant human TG2 10 nM, dansylcadaverine incorporation into dimethylcasein, read-out: IC50 TG2
T1 construct: purchased Zedira T022
T1 sequence (P21980 1-687): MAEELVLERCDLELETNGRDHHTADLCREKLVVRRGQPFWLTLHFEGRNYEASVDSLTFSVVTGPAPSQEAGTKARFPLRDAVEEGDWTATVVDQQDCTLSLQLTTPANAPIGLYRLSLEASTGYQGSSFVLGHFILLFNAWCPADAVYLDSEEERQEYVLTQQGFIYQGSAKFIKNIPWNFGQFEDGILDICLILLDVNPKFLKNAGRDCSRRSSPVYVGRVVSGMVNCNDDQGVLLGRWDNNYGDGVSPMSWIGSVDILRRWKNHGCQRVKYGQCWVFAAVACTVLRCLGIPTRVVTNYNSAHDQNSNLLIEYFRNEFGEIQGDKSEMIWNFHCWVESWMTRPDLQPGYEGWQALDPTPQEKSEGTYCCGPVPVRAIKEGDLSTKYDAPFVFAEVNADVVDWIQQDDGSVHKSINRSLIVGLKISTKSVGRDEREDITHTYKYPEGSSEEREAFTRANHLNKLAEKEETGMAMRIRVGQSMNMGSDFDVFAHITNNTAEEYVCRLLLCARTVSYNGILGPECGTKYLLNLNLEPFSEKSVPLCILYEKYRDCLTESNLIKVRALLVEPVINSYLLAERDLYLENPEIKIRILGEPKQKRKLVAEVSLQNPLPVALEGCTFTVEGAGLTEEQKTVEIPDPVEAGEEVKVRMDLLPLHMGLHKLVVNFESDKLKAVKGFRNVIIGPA
Experimental: To illustrate the advantage of branched alkyl moieties over aromatic moieties, we refer to reference compounds Ref. 2 (ZED1227, U.S. Pat. No. 9,434,763 B2) and Ref. 3 (A8, ZED1047). Inhibition data were determined using the classical fluorescent transamidation assay (dansylcadaverine incorporation into methylated casein, DCC-assay) as described [Buchold, C.; Hils, M.; Gerlach, U.; Weber, J.; Pelzer, C.; Heil, A.; Aeschlimann, D.; Pasternack, R. Features of ZED1227: The First-In-Class Tissue Transglutaminase Inhibitor Undergoing Clinical Evaluation for the Treatment of Celiac Disease. Cells 2022, 11, 1667. https://doi.org/10.3390/cells11101667]. Casein is one of the best known high molecular weight (24 kDa) protein substrates for transglutaminases. Please note, the IC50 value of Ref. 3 (A8) published in U.S. Pat. No. 9,434,763 B2 cannot be compared to the present data, relying on a fluorogenic isopeptidase assay.
To this extent, inhibition data were determined using the classical fluorescent transamidation assay (dansylcadaverine incorporation into methylated casein, DCC-assay) as described in Büchold et al. [Büchold, C.; Hils, M.; Gerlach, U.; Weber, J.; Pelzer, C.; Heil, A.; Aeschlimann, D.; Pasternack, R. Features of ZED1227: The First-In-Class Tissue Transglutaminase Inhibitor Undergoing Clinical Evaluation for the Treatment of Celiac Disease. Cells 2022, 11, 1667. https://doi.org/10.3390/cells11101667]. Casein is one of the best known high molecular weight (24 kDa) protein substrates for transglutaminases. Inhibition data of the inventive compounds was compared with inhibition of compounds disclosed in U.S. Pat. No. 9,434,763 B2, particularly, compound A8, which is denoted herein as Reference 3. It is noteworthy that the IC50 values of compounds A8 published in U.S. Pat. No. 9,434,763 B2 and E16 from U.S. Pat. No. 11,072,634 B2 cannot be compared to the present data, relying on a fluorogenic isopeptidase assay.
For the determination of potency of inhibitors against tissue transglutaminase, the incorporation of dansylcadaverine into dimethylcasein (Zedira product T036, Lorand et al., Anal Biochem, 1971, 44:221-31) was measured using recombinant human transglutaminase 2 (Zedira Product T022).
The tissue transglutaminase is diluted in buffer (50 mM Tris-HCl, 7.5 mM CaCl2), 150 mM NaCl, pH=7.4). The final concentration of TG2 in the assay is 10 nM.
A 10 mM inhibitor stock solution is prepared in DMSO, and from this a serial 1:2-fold dilution series is prepared also in DMSO. Each of the initial dilutions is subsequently diluted 1:50-fold with buffer (50 mM Tris-HCl, 7.5 mM CaCl2), 150 mM NaCl, pH=7.4) to yield the final working dilutions containing 2% (v/v) DMSO.
15 μl of inhibitor working dilution are added per well of a 96 well microtiter plate. As control, 15 μl of a 2% (v/v) DMSO solution prepared using the buffer mentioned above are added per well.
Immediately before starting the assay, 600 μl transglutaminase working solution are added to 11.4 ml assay buffer (50 mM Tris-HCl, 10 mM CaCl2), 10 mM glutathione, 2.5% glycerol, 16.7 µM dansylcadaverine, 4 uM N,N-dimethylcasein, 200 mM NaCl, pH=8.0). 285 μl of this reaction mix are added per well containing the inhibitor.
Increase in fluorescence is measured using λex=330 nm and λem=500 nm at 37° C. for 30 min. A slope of the increase in fluorescence between 20 and 30 min is calculated for determination of the IC50 value (inhibitor concentration at which 50% of the initial activity is blocked).
Analysis of enzymatic activity is performed by calculation of the slope of an increase in fluorescence intensity. IC50 values are calculated by plotting the enzymatic activity (as percentage from control containing 2% DMSO instead of inhibitor) against the inhibitor concentration. IC50 is defined as the inhibitor concentration blocking 50% of initial enzyme activity.

[2] = logD by shake flask method (octanol / PBS pH 7.4, HPLC); type: physicochemical; settings: octanol / PBS pH 7.4, shake flask
Experimental: In order to classify the inventive compounds according to their lipophilicity, LogD values (distribution coefficient) were determined by means of the well-established shake flask method, measuring the partition of a compound between an octanol and phosphate-buffered saline (PBS, pH 7.4) by HPLC.
The LogD is pH dependent and is a “predictor” for in-vivo properties. LogD combines lipophilicity (intrinsic structural property of the molecule, logP) and ionizability (pKa). Compounds with a moderate lipophilicity (LogD values from 0 to 3) are usually advantaged for oral absorption, being in balance between solubility and permeability. However, sophisticated formulation of a compound might improve oral bioavailability for highly lipophilic compounds.

[3] = Caco-2 permeability assay (CacoReady kit); type: in vitro ADME; settings: human, Caco-2, Caco-2 barrier, CacoReady kit; above 1×10^−6 cm/s classified as permeable
Experimental: Permeability coefficients (Papp values) were obtained from Caco-2 barrier studies predicting oral/intestinal bioavailability of the tested compounds. The assays were performed by using CacoReady™ ready-to-use kits from ReadyCell according to the manufacturers protocol.

Structure (SMILES)	IC50 [1] [nM]	logD [2]	Papp [3] [×10⁻⁶ cm/s]	fold more potent compared to Ref. 3 ([1]; DCC-assay, IC50 ratio versus Ref. 3 (A8)) [fold]
CNC(=O)C(=O)CC[C@H](NC(=O)c1ccnn1C)C(=O)Nc1cccn(CC(=O)N[C@H]2C[C@H]3CC[C@]2(C)C3(C)C)c1=O [II-163, (S)-N1-methyl-5-(1-methyl-1H-pyrazole-5-carboxamido)-2-oxo-N6-(2-oxo-1-(2-oxo-2-((1R,2S,4R)-1,7,7-trimethylbicyclo[2.2.1]heptan-2-ylamino)ethyl)-1,2-dihydropyridin-3-yl)hexanediamide]	40 to 400	< 1	< 1	–
CNC(=O)C(=O)CC[C@H](NC(=O)c1cn[nH]n1)C(=O)Nc1cccn(CC(=O)NC2C3CC4CC(C3)CC2C4)c1=O (stereo partly drawn) [II-132, (S)-N1-(1-(2-(2-adamantylamino)-2-oxoethyl)-2-oxo-1,2-dihydropyridin-3-yl)-N6-methyl-5-oxo-2-(1H-1,2,3-triazole-4-carboxamido)hexanediamide]	400 to 2500	–	–	–
O=C(Cn1cccc(NC(=O)[C@H](CCC(=O)C(=O)Nc2ccccc2)NC(=O)c2cc3ccccc3o2)c1=O)NC1C2CC3CC(C2)CC1C3 (stereo partly drawn) [II-122, (S)-2-(benzofuran-2-carboxamido)-N1-(1-(2-(2-adamantylamino)-2-oxoethyl)-2-oxo-1,2-dihydropyridin-3-yl)-5-oxo-N6-phenylhexanediamide]	400 to 2500	3 to 5	1 to 10	–
CCc1c(C(=O)N[C@@H](CCC(=O)C(=O)NC2CCCCC2)C(=O)Nc2cccn(CC(=O)NC34CC(C3)C4)c2=O)oc2ccccc12 [II-182, (S)-N1-(1-(2-(bicyclo[1.1.1]pentan-1-ylamino)-2-oxoethyl)-2-oxo-1,2-dihydropyridin-3-yl)-N6-cyclohexyl-2-(3-ethylbenzofuran-2-carboxamido)-5-oxohexanediamide]	40 to 400	1 to 3	1 to 10	–
CNC(=O)C(=O)CC[C@H](NC(=O)c1nc(Cl)sc1Cl)C(=O)Nc1cccn(CC(=O)NC2C3CC4CC(C3)CC2C4)c1=O (stereo partly drawn) [II-32, (S)-2-(2,5-dichlorothiazole-4-carboxamido)-N1-(1-(2-(2-adamantylamino)-2-oxoethyl)-2-oxo-1,2-dihydropyridin-3-yl)-N6-methyl-5-oxohexanediamide]	40 to 400	1 to 3	1 to 10	–
CCC12CC3CC(C1)C(NC(=O)Cn1cccc(NC(=O)[C@H](CCC(=O)C(=O)NC)NC(=O)c4ccc5cnccc5n4)c1=O)C(C3)C2 (stereo partly drawn) [II-187, (S)-N1-(1-(2-(5-ethyladamantane-2-amino)-2-oxoethyl)-2-oxo-1,2-dihydropyridin-3-yl)-N6-methyl-2-(1,6-naphthyridine-2-carboxamido)-5-oxohexanediamide]	400 to 2500	3 to 5	1 to 10	–
CNC(=O)C(=O)CC[C@H](NC(=O)c1nc(Br)cs1)C(=O)Nc1cccn(CC(=O)NC2C3CC4CC(C3)CC2C4)c1=O (stereo partly drawn) [II-39, (S)-2-(4-bromothiazole-2-carboxamido)-N1-(1-(2-(2-adamantylamino)-2-oxoethyl)-2-oxo-1,2-dihydropyridin-3-yl)-N6-methyl-5-oxohexanediamide]	40 to 400	1 to 3	1 to 10	–
CNC(=O)C(=O)CC[C@H](NC(=O)c1cnnn1C)C(=O)Nc1cccn(CC(=O)N[C@H]2C[C@H]3CC[C@]2(C)C3(C)C)c1=O [II-162, (S)-N1-methyl-5-(1-methyl-1H-1,2,3-triazole-5-carboxamido)-2-oxo-N6-(2-oxo-1-(2-oxo-2-((1R,2S,4R)-1,7,7-trimethylbicyclo[2.2.1]heptan-2-ylamino)ethyl)-1,2-dihydropyridin-3-yl)hexanediamide]	40 to 400	< 1	< 1	–
CCC(CC)CNC(=O)Cn1cccc(NC(=O)[C@H](CC/C=C/C(=O)OC)NC(=O)c2cncn2C)c1=O [Ref. 2, reference compound]	40 to 400	–	–	80

Second part, the compound after the results:

IC50 [1] [nM]	logD [2]	Papp [3] [×10⁻⁶ cm/s]	fold more potent compared to Ref. 3 ([1]; DCC-assay, IC50 ratio versus Ref. 3 (A8)) [fold]	Structure (SMILES)
40 to 400	< 1	< 1	–	CNC(=O)C(=O)CC[C@H](NC(=O)c1ncns1)C(=O)Nc1cccn(CC(=O)NC23CC(C2)C3)c1=O [II-199, (S)-N1-(1-(2-(bicyclo[1.1.1]pentan-1-ylamino)-2-oxoethyl)-2-oxo-1,2-dihydropyridin-3-yl)-N6-methyl-5-oxo-2-(1,2,4-thiadiazole-5-carboxamido)hexanediamide]
< 40	3 to 5	1 to 10	–	CNC(=O)C(=O)CC[C@H](NC(=O)c1cc(Br)sc1Br)C(=O)Nc1cccn(CC(=O)NC2C3CC4CC(C3)CC2C4)c1=O (stereo partly drawn) [II-29, (S)-2-(2,5-dibromothiophene-3-carboxamido)-N1-(1-(2-(2-adamantylamino)-2-oxoethyl)-2-oxo-1,2-dihydropyridin-3-yl)-N6-methyl-5-oxohexanediamide]
< 40	3 to 5	1 to 10	–	CNC(=O)C(=O)CC[C@H](NC(=O)c1cc(Br)c(Cl)s1)C(=O)Nc1cccn(CC(=O)NC2C3CC4CC(C3)CC2C4)c1=O (stereo partly drawn) [II-44, (S)-2-(4-bromo-5-chlorothiophene-2-carboxamido)-N1-(1-(2-(2-adamantylamino)-2-oxoethyl)-2-oxo-1,2-dihydropyridin-3-yl)-N6-methyl-5-oxohexanediamide]
< 40	1 to 3	1 to 10	–	CNC(=O)C(=O)CC[C@H](NC(=O)c1[nH]c2ccccc2c1C)C(=O)Nc1cccn(CC(=O)NC2C3CC4CC(C3)CC2C4)c1=O (stereo partly drawn) [II-11, (S)-N1-(1-(2-(2-adamantylamino)-2-oxoethyl)-2-oxo-1,2-dihydropyridin-3-yl)-N6-methyl-2-(3-methyl-1H-indole-2-carboxamido)-5-oxohexanediamide]
